{"source": "patent US20260248087A1", "about": "“GENERATING DOUBLED HAPLOID PLANTS” (Syngenta Crop Protection AG, priority 2023, published 2026)", "key": {"corn embryos": {"system": "corn embryos", "experiment": "Uptake of metcamifen and metabolism of colchicine in corn embryos (LCMS)", "format": "in vitro ADME", "experimental": "An experiment was completed to evaluate the uptake of metcamifen into corn embryos, whether colchicine is metabolized in the embryos, and if metcamifen increased the rate of colchicine metabolism. Corn embryos were co-treated with 500 ppm colchicine in the presence of 200 ppm, 1000 ppm or no metcamifen (control) for 24 or 48 hours and frozen. One biological replicate was represented by five embryos, and three biological replicates were used per co-treatment.\nPrior to extraction, embryos were washed for 20 seconds in 80:20 (v/v) acetonitrile:H2O to remove any colchicine and metcamifen on the surface. Each replicate was extracted in 0.5 ml methanol using a fast prep maceration method. Then, samples were diluted 1 in 10 prior to analysis by Liquid Chromatography Mass Spectrometry (LCMS). Samples were analyzed alongside matrix matched standards of colchicine and metcamifen. Metabolite investigations were performed to identify any metabolites."}, "doubled haploid embryos": {"system": "doubled haploid embryos", "experiment": "Potting rate and root growth, metcamifen post-treatment during germination", "format": "in vivo, maize", "details": "for Potting Rate Mean: post-treatment in germination media (2.5 g/L Gelzan)", "experimental": "As used herein, the term “potted rate” or “potting rate” refers to the percent of germinated embryos successfully transferred to soil from total treated haploid embryos. The “potted rate” is used as an indication of plant health in monitoring the success of recovery and growth after treatment of haploids. As used herein, the term “transplant rate” refers to the survival of healthy plants after embryos were germinated and transferred to soil.\nDoubled haploid embryos were treated with metcamifen during germination. Metcamifen was tested in the germination media at 0, 5, and 10 mg/L after colchicine treatment completion for 24 or 48 hours. The germination media comprised Gelzan at a concentration of 3.5 g/L. Four genotypes were tested representing two heterotic groups. […] The percent potting rate was not increased as result of these post-treatments. […] This led to a looping of the roots. A reduction in Gelzan concentration from 3.5 g/L to 2.5 g/L was tested (comparison data not presented here). The experiments were then carried out with 2.5 g/L Gelzan for metcamifen post-treatments while the control (0 metcamifen) contained 3.5 g/L Gelzan. Metcamifen was tested as 0, 5, 10 and 20 mg/L after colchicine treatment completion for 24 and 48 hours. The reduction in Gelzan of the metcamifen post-treatments led to a higher percent potting rate (see Table 5)."}}, "data": [{"smiles": "CNC(=O)Nc1ccc(S(=O)(=O)NC(=O)c2ccccc2OC)cc1", "note": "[Metcamifen, metcamifen]", "values": [{"measurement": "effect of metcamifen on amount of colchicine recovered", "setting": "corn embryos; 500 ppm colchicine with 200 or 1000 ppm metcamifen", "result": "did not reduce the amount of colchicine recovered"}, {"measurement": "metcamifen in embryo extracts (uptake)", "setting": "corn embryos; co-treated with 500 ppm colchicine and 200 or 1000 ppm metcamifen, 24 and 48 hours", "result": "could be detected"}, {"measurement": "recovery amount of colchicine metabolite (−14, O-demethylation)", "setting": "corn embryos; duration and metcamifen co-treatment", "result": "increased"}, {"measurement": "percent potting rate", "setting": "doubled haploid embryos; post-treatment 5 and 10 mg/L, 3.5 g/L Gelzan, 24 or 48 hours", "result": "not increased"}, {"measurement": "Potting Rate Mean", "setting": "doubled haploid embryos; 5 mg/L, Duration 24 hours", "result": 69, "unit": "%"}, {"measurement": "Potting Rate Mean", "setting": "doubled haploid embryos; 5 mg/L, Duration 48 hours", "result": 18, "unit": "%"}, {"measurement": "Potting Rate Mean", "setting": "doubled haploid embryos; 10 mg/L, Duration 24 hours", "result": 62, "unit": "%"}, {"measurement": "Potting Rate Mean", "setting": "doubled haploid embryos; 10 mg/L, Duration 48 hours", "result": 24, "unit": "%"}, {"measurement": "Potting Rate Mean", "setting": "doubled haploid embryos; 20 mg/L, Duration 24 hours", "result": 51, "unit": "%"}, {"measurement": "Potting Rate Mean", "setting": "doubled haploid embryos; 20 mg/L, Duration 48 hours", "result": 23, "unit": "%"}]}]}
